Assay results as given in US7419961B2, “9a-azalides with anti-inflammatory activity” (Zambon S.p.A., priority 2002, dated 2008).
≈ marks a conversion by molar mass, not a printed value.

How the values were obtained:
[1] = test system: mouse ear edema induced by PMA (phorbol myristate acetate); assay: Acute contact dermatitis: TPA-induced auricular edema; type: in vivo, CD1 mice; conditions: 500 μg/ear topical in TPDS, 30 min before TPA 0.01%, sacrifice 6 h later
Method: Groups of 5-6 CD1 mice (18-24 g) were used. • Administration of the Compounds All the macrolide derivatives were dissolved in Trans-phase Delivery System (TPDS), a vehicle containing benzyl alcohol 10%, acetone 40% and isopropanol 50%. 15 microliters of the compounds (500 μg), dissolved in TPDS, were applied topically to the internal surface of one ear; 30 minutes later, 12 microliters of a solution of tetradecanoyl phorbol acetate (TPA) at a concentration of 0.01% dissolved in acetone, were applied to the same area. Six hours later, the animals were sacrificed by inhalation of CO2. • Evaluation of the Results Two methods were used for assessing the auricular edema: • a) Weighing a defined portion of auricular pinna. • b) Measurement of auricular thickness using precision spring calipers. The degree of edema was calculated by subtracting the weight or the thickness of the untreated ear from that of the treated contralateral ear. To determine the degree of remission of the edema, the difference (weight or thickness) of the groups treated with TPA+macrolides relative to those treated with just TPA was compared. The activity of the macrolides was measured using the modified method of Zunic et al. (1998): MDL (Lysyl) GDP, a non-toxil muramyl dipeptide derivative inhibits cytokine production by activated macrophages and protects mice from phorbol ester- and oxazolone-induced inflammation (J. Invest. Dermatol., 111 (1), 77-82). The data relating to erythromycin and azithromycin refer to treatment in a single dose at 500 μg/ear.

[2] = test system: Enterococcus faecalis ATCC 29212; assay: Antibiotic activity, MIC in liquid culture medium; type: cell-based; conditions: ATCC29212, lowest concentration that completely inhibits visible growth, read-out: Enter. faec. ATCC 29212 MIC
Method: (§1) The MIC values were determined in liquid culture medium by the technique described in the “Manual of Clinical Microbiology, 7th edition (1999), American Society for Microbiology”.

[3] = test system: accumulation of neutrophils in the rat lung induced by LPS; assay: LPS-induced pulmonary inflammation in the rat; type: in vivo; conditions: oral single dose 100, 40 and 10 μmol/kg one hour before LPS 0.4 mg/kg endotracheally; 20 h; erythromycin: single oral dose 130 μmol/kg
Method: The rats were given a single dose of 0.4 mg/kg of LPS (E. coli, serotype 026:6) endotracheally, by the trans-oral route. Tracheal instillation was carried out under halothane anesthesia and 20 hours after the endotracheal administration of LPS/saline solution the animals were sacrificed by urethane overdose. • Washing
The lungs were washed with four aliquots each of 5 ml of saline solution with heparin 10 IU/ml. The cellular suspension was concentrated by low-speed centrifugation and the cellular pellet was suspended. • Cell Count and Differentiation
The total cell count was obtained using a hemocytometer.
The differential count was obtained from cytospin preparations stained with May-Grunwald-Giemsa (Tamaoki J., Tagaya E., Yamawaki I., Sakai N., Nagai A., Konno K., 1995. Effect of erythromycin on endotoxin-induced microvascular leakage in the rat trachea and lungs. Am. J. Respir. Crit. Care Med., 151, 1582-8). The rats received the test compounds orally at a dose of 100, 40 and 10 μmol/kg as a single dose administered orally one hour before exposure to LPS.
The ED/50 value is the dose that caused 50% reduction in the neutrophil count in the bronchial wash fluid.
The result for erythromycin relates to oral treatment in a single dose with 130 μmol/kg.

[4] = test system: Streptococcus pyogenes ATCC 19615; assay: Antibiotic activity at 128 μg/ml; type: cell-based
Method: as §1

[5] = test system: Staphylococcus aureus ATCC 6538; assay: Antibiotic activity at 128 μg/ml; type: cell-based
Method: as §1

[6] = test system: Staphylococcus aureus ATCC 29213; assay: Antibiotic activity, MIC in liquid culture medium; type: cell-based; conditions: ATCC29213, lowest concentration that completely inhibits visible growth, read-out: Sta. aureus ATCC 29213 MIC
Method: as §1

[7] = test system: Streptococcus pneumoniae ATCC 49619; assay: Antibiotic activity, MIC in liquid culture medium; type: cell-based; conditions: ATCC49619, lowest concentration that completely inhibits visible growth, read-out: Str. pneum. ATTC 49619 MIC
Method: as §1

[8] = method a: weighing a defined portion of auricular pinna

CC[C@H]1OC(=O)[C@H](C)[C@@H](O[C@H]2C[C@@](C)(OC)[C@@H](O)[C@H](C)O2)[C@H](C)[C@@H](O[C@@H]2O[C@H](C)C[C@H](N(C)C)[C@H]2O)[C@](C)(O)C[C@@H](C)CN(C)[C@H](C)[C@@H](O)[C@]1(C)O [Azithromycin, reference compound]
inhibition in vivo at 500 µg/ear [1, 8]: 40%

CC[C@H]1OC(=O)[C@H](C)[C@@H](O)[C@H](C)[C@@H](O[C@@H]2O[C@H](C)C[C@H]([N+](C)(C)[O-])[C@H]2O)C(C)(O)C[C@@H](C)CN(C)[C@H](C)[C@@H](O)[C@]1(C)O (stereo partly drawn) [Compound 1]
MIC [2]: > 128 µg/mL | ED/50 (dose that caused 50% reduction in the neutrophil count in the bronchial wash fluid) [3]: 10 µmol/kg | Str. pyogen. ATTC 19615 128 (μg/ml) [4]: not active | Sta. aureus ATCC 6538 128 (μg/ml) [5]: not active | inhibition in vivo at 500 µg/ear [1, 8]: 56.7%

CC[C@H]1OC(=O)[C@H](C)[C@@H](O)[C@H](C)[C@@H](O[C@@H]2O[C@H](C)C[C@H]([N+](C)(C)[O-])[C@H]2O)C(C)(O)C[C@@H](C)C[N+](C)([O-])[C@H](C)[C@@H](O)[C@]1(C)O (stereo partly drawn) [Compound 2]
inhibition in vivo at 500 µg/ear [1, 8]: 25.3%

CC[C@H]1OC(=O)[C@H](C)[C@@H](O)[C@H](C)[C@@H](O[C@@H]2O[C@H](C)C=C[C@H]2O)C(C)(O)C[C@@H](C)CN(C)[C@H](C)[C@@H](O)[C@]1(C)O (stereo partly drawn) [Compound 3]
inhibition in vivo at 500 µg/ear [1, 8]: 34.4%

CC[C@H]1OC(=O)[C@H](C)[C@@H](O)[C@H](C)[C@@H](O[C@@H]2O[C@H](C)CC[C@H]2O)C(C)(O)C[C@@H](C)CN(C)[C@H](C)[C@@H](O)[C@]1(C)O (stereo partly drawn) [Compound 4]
inhibition in vivo at 500 µg/ear [1, 8]: 16.5%

CC[C@H]1OC(=O)[C@H](C)[C@@H](O)[C@H](C)[C@@H](O[C@@H]2O[C@H](C)C[C@H](N(C)C(C)=O)[C@H]2O)C(C)(O)C[C@@H](C)CN(C)[C@H](C)[C@@H](O)[C@]1(C)O (stereo partly drawn) [Compound 5]
inhibition in vivo at 500 µg/ear [1, 8]: 40.5%

CC[C@H]1OC(=O)[C@H](C)[C@@H](O)[C@H](C)[C@@H](O[C@@H]2O[C@H](C)C[C@H](N(C)C)[C@H]2O)C(C)(O)C[C@H](C)CN(CCCNCc2nccs2)[C@H](C)[C@@H](O)[C@]1(C)O (stereo partly drawn) [Compound 6]
MIC [2]: 64 µg/mL (≈ 87.6 µM) | MIC [6]: 64 µg/mL (≈ 87.6 µM) | MIC [7]: 8 µg/mL (≈ 10.9 µM)

CC[C@H]1OC(=O)[C@H](C)[C@@H](O)[C@H](C)[C@@H](O[C@@H]2O[C@H](C)C[C@H](N(C)C)[C@H]2O)C(C)(O)C[C@@H](C)CN(CCCNCc2c[nH]cn2)[C@H](C)[C@@H](O)[C@]1(C)O (stereo partly drawn) [Compound 8]
inhibition in vivo at 500 µg/ear [1, 8]: 29.7%

CC[C@H]1OC(=O)[C@H](C)[C@@H](O)[C@H](C)[C@@H](O[C@@H]2O[C@H](C)C[C@H](N(C)C)[C@H]2O)C(C)(O)C[C@@H](C)CN(CCCNCCCCCCNCc2ccccc2)[C@H](C)[C@@H](O)[C@]1(C)O (stereo partly drawn) [Compound 12]
MIC [2]: > 128 µg/mL | MIC [6]: > 128 µg/mL | MIC [7]: 64 µg/mL (≈ 77.7 µM) | inhibition in vivo at 500 µg/ear ([1]; method b: auricular thickness using precision spring calipers): 39.5%

CC[C@H]1OC(=O)[C@H](C)[C@@H](O)[C@H](C)[C@@H](O[C@@H]2O[C@H](C)CC[C@H]2O)C(C)(O)C[C@@H](C)CN(CCCNCCNCc2nccs2)[C@H](C)[C@@H](O)[C@]1(C)O (stereo partly drawn) [Compound 13]
inhibition in vivo at 500 µg/ear [1, 8]: 44.7%

CC[C@H]1OC(=O)[C@H](C)[C@@H](O[C@H]2C[C@@](C)(OC)[C@@H](O)[C@H](C)O2)[C@H](C)[C@@H](O[C@@H]2O[C@H](C)C[C@H](N(C)C)[C@H]2O)[C@](C)(O)C[C@@H](C)C(=O)[C@H](C)[C@@H](O)[C@]1(C)O [Erythromycin, erythromycin, reference compound]
MIC [2]: 1 µg/mL (≈ 1.36 µM) | MIC [6]: 0.25 µg/mL (≈ 0.341 µM) | MIC [7]: 0.12 µg/mL (≈ 0.164 µM) | ED/50 (dose that caused 50% reduction in the neutrophil count in the bronchial wash fluid) [3]: not active | inhibition in vivo at 500 µg/ear [1, 8]: 42%
